# Results as given in ChEMBL document CHEMBL3414562, “Synthesis of isocryptolepine analogues and their structure-activity relationship studies as antiplasmodial and antiproliferative agents” (Eur J Med Chem, 2015).
# Tests used:
# [1] = Cytotoxicity against human HuCCa1 cells by MTT assay; format: functional, cell-based; settings: HuCC-A1
# Plasmodium falciparum [2] = test: microbe, parasite or virus in culture; settings: SRIV35
# Plasmodium falciparum [3] = test: microbe, parasite or virus in culture; settings: 3D7
# Description: Antiplasmodial activity against chloroquine-sensitive Plasmodium falciparum 3D7
# Plasmodium falciparum [4] = test: microbe, parasite or virus in culture; settings: K1
# Description: Antiplasmodial activity against chloroquine-resistant Plasmodium falciparum K1
# A549 = test: Cytotoxicity against human A549 cells by MTT assay; format: functional, cell-based
# [5] = Selectivity index, ratio of IC50 for human MRC5 cells to IC50 for chloroquine/mefloquine-resistant Plasmodium falciparum SKF58; format: toxicity, cell-based; settings: read-out: Ratio IC50
# HepG2 = test: Cytotoxicity against human HepG2 cells by MTT assay; format: functional, cell-based
# [6] = Selectivity index, ratio of IC50 for human MRC5 cells to IC50 for human HuCCa1 cells; format: functional
# [7] = Selectivity index, ratio of IC50 for human MRC5 cells to IC50 for chloroquine/mefloquine-resistant Plasmodium falciparum SRIV35; format: toxicity, cell-based; settings: read-out: Ratio IC50
# Plasmodium falciparum [8] = test: microbe, parasite or virus in culture; settings: SKF58
# [9] = Selectivity index, ratio of IC50 for human MRC5 cells to IC50 for […]; format: toxicity, cell-based; settings: read-out: Ratio IC50
# [10] = Selectivity index, ratio of IC50 for human MRC5 cells to IC50 for chloroquine-resistant Plasmodium falciparum K1; format: toxicity, cell-based; settings: read-out: Ratio IC50
# [11] = Cytotoxicity against human MOLT3 cells by XTT assay; format: functional, cell-based; settings: MOLT-3
# MRC5 [12] = test: Cytotoxicity against human MRC5 cells by MTT assay; format: cell-based
# MRC5 [13] = test: Cytotoxicity against human MRC5 cells at 144667 nM by MTT assay relative to control; format: cell-based; settings: mrc5, 144.667 µM
SMILES,IC50 [1] [µM],IC50 (Plasmodium falciparum [2]) [µM],IC50 (Plasmodium falciparum [3]) [µM],IC50 (Plasmodium falciparum [4]) [µM],IC50 (A549) [µM],selectivity ratio [5],IC50 (HepG2) [µM],Ratio IC50 [6],selectivity ratio [7],IC50 (Plasmodium falciparum [8]) [µM],selectivity ratio [9],selectivity ratio [10],IC50 [11] [µM],IC50 (MRC5 [12]) [µM],Activity (MRC5 [13]) [%]
Cn1cc2c3cc(Br)ccc3nc-2c2cc(Cl)ccc21,30.8,0.171,0.182,0.232,7.03,> 893,4.83,>4.7,> 845,0.162,> 796,> 623,0.75,> 145,40.45
Cn1cc2c3cc(Br)ccc3nc-2c2cc(F)ccc21,15,0.211,0.119,0.188,13.2,921,3.65,8.14,577,0.132,1020,650,0.88,122,
Cn1cc2c3ccccc3nc-2c2cc(Cl)ccc21,6.45,0.217,0.221,0.321,1.5,45.7,0.64,1.62,48,0.228,47.1,32.5,0.52,10.4,
Cn1cc2c3cc(F)ccc3nc-2c2cc(Cl)ccc21,9.48,0.176,0.166,0.288,7.9,22.8,0.81,0.43,22.9,0.177,24.4,14.1,0.74,4.04,
Cn1cc2c3cc(Cl)ccc3nc-2c2cc(Cl)ccc21,13.2,0.156,0.172,0.229,30.2,194,7.9,1.9,162,0.13,146,110,0.93,25.2,
Cc1cc(Br)cc2c3cn(C)c4ccc(Cl)cc4c-3nc12,6.15,0.0867,0.095,0.145,2.34,59.2,1.39,0.89,63.2,0.0926,57.7,37.8,1.17,5.43,
COc1ccc2nc3c4cc(Cl)ccc4n(C)cc-3c2c1,10.4,0.209,0.211,0.38,6.98,13.8,2.19,0.28,13.7,0.207,13.5,7.52,2.9,3.1,
Cn1cc2c3ccc4ccccc4c3nc-2c2cc(Cl)ccc21,1.55,0.126,0.136,0.19,1.2,34.3,0.76,2.96,36.3,0.134,33.6,24.1,1.55,2.62,
Cn1cc2c3ccccc3nc-2c2cccc(Cl)c21,21,> 2,> 2,> 2,8.59,,2.62,0.59,,> 2,,,1.27,12.4,
Cn1cc2c3cc(Br)ccc3nc-2c2cccc(Cl)c21,4.92,> 2,> 2,> 2,5.5,,2.55,0.64,,> 2,,,0.78,3.15,
Cc1cccc2c3nc4ccccc4c-3cn(C)c12,16.6,1.57,1.57,1.74,11.1,24.6,2.6,2.33,24.6,1.57,24.6,22.2,2.92,39.5,
Cn1cc2c3cc(Br)ccc3nc-2c2cccc(F)c21,4.48,0.235,0.178,0.296,6.17,63,3.22,3.42,65.2,0.243,86.1,51.8,1.09,15.3,
